How the values were obtained:
Escherichia coli BL21 = assay: Growth inhibition of Escherichia coli BL21 expressing MVK, PMK, MDD and fed MVA; assay type: cell-based; details: 5.8 mM MVA
Protocol: FIG. 145 is a graph of growth curves for cultures of BL21 expressing MVK, circles; MVK+PMV, triangles; MVK+PMV+MDD, squares. Cultures were either fed 5.8 mM MVA, filled symbols, or grown without addition of MVA, open symbols. Y-axis is OD600. Samples were taken for analysis at times indicated by the arrow. Numbers above the arrows correspond to E. coli BL21 cells bearing pTrcK, representing a plasmid expressing MVK (#5), pTrcKK representing a plasmid expressing MVK plus PMK (#7), and pTrcKKD, representing a plasmid expressing MVK plus PMK plus MDD (#6) were grown.
The purpose of this experiment was to determine the effect of the expression of the proteins mevalonate kinase (MVK), phophomevalonate kinase (PMK), and diphosphomevalonate decarboxylase (MDD) of Escherichia coli cultures.
E. coli BL21 cells bearing pTrcK, representing a plasmid expressing MVK, pTrcKK representing a plasmid expressing MVK plus PMK, and pTrcKKD, representing a plasmid expressing MVK plus PMK plus MDD were grown at approximately 30° C. and 250 rpm in 250 mL flasks containing 25 mL of TM3 medium (13.6 g K2PO4, 13.6 g KH2PO4, 2.0 g MgSO4*7H2O) supplemented with 1% glucose and 0.8 g/L Biospringer yeast extract (1% Yeast extract final). When OD600 reached 0.8 to 0.9, 5.8 mM mevalonic acid was added to the cultures and incubation was continues for an additional 5 hours. OD600 measurements were taken, and the cultures were sampled for metabolite analysis at 2 hours post MVA addition. Samples were collected into 100% MeOH prechilled in dry ice in a ratio of 1:1. Samples were stored at −80° C. until analyzed as follows. The methanol-quenched cells were pelleted by centrifugation and the resulting supernatant was loaded onto Strata-X-AW anion exchange column (Phenomenex) containing 30 mg of sorbent. The pellet was reextracted twice with several milliliters of 50%, v/v, aqueous methanol containing 20% ammonium bicarbonate buffer (pH=8.0) and then with 75%, v/v, aqueous bicarbonate-buffered methanol. […]

[1] = about 1 atmosphere and about 60° F.; cited from earlier work
[2] = Flammability modeling (CAFT) and experimental flammability testing of isoprene; assay type: physicochemical
Description: Thus, computer modeling and experimental testing were used to determine the flammability limits of isoprene (such as isoprene in the presence of O2, N2, CO2, or any combination of two or more of the foregoing gases) in order to ensure process safety. The flammability envelope is characterized by the lower flammability limit (LFL), the upper flammability limit (UFL), the limiting oxygen concentration (LOC), and the limiting temperature. For a system to be flammable, a minimum amount of fuel (such as isoprene) must be in the presence of a minimum amount of oxidant, typically oxygen. The LFL is the minimum amount of isoprene that must be present to sustain burning, while the UFL is the maximum amount of isoprene that can be present. Above this limit, the mixture is fuel rich and the fraction of oxygen is too low to have a flammable mixture. The LOC indicates the minimum fraction of oxygen that must also be present to have a flammable mixture. The limiting temperature is based on the flash point of isoprene and is that lowest temperature at which combustion of isoprene can propagate. […]
The LOC was determined to be 9.5 vol % for an isoprene, O2, N2, and CO2 mixture at 40° C. and 1 atmosphere. […]
Calculated adiabatic flame temperatures (CAFT) along with a selected limit flame temperature for combustion propagation were used to determine the flammability envelope for isoprene. […]

For `C[C@@](O)(CCO)CC(=O)O` [MVA, mevalonic acid], the “growth (OD600)” value (Escherichia coli BL21; BL21 pTrcK, MVK only (strain #5)) was “No growth inhibition was observed”, the “growth (OD600)” value (Escherichia coli BL21; BL21 pTrcKK, MVK plus PMK (strain #7)) was “inhibition of growth was evident” and the “growth (OD600)” value (Escherichia coli BL21; BL21 pTrcKKD, MVK plus PMK plus MDD (strain #6)) was “additional inhibition is observed”.
For `CCO` [ethanol], the LFL [1] is listed as “about 3.3 vol %” and the LOC [1] is listed as “about 8.7 vol %”.
With `C=CC(=C)C` [isoprene, 2-methyl-1,3-butadiene] the “limiting oxygen concentration (LOC)” value ([2]; isoprene, O2, N2, and CO2 mixture at 40° C. and 1 atmosphere) was 9.5 vol % and the limiting temperature ([2]; lowest temperature at which combustion of isoprene can propagate) was “about −54 °C”.

From patent US20100184178A1, “INCREASED ISOPRENE PRODUCTION USING MEVALONATE KINASE AND ISOPRENE SYNTHASE” (priority 2008, published 2010)
